In the supplement of paper PMC10307832:

Experiments:
Experiment in all cases: relative viability (nuclei count vs DMSO), 5 days (fraction); higher = more cells survive
Idelalisib + Palbociclib = compound: CC[C@H](Nc1ncnc2[nH]cnc12)c1nc2cccc(F)c2c(=O)n1-c1ccccc1 [Idelalisib] + CC(=O)c1c(C)c2cnc(Nc3ccc(N4CCNCC4)cn3)nc2n(C2CCCC2)c1=O [Palbociclib] (partner 0.5 µM)
Method in brief: (§1)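 Values are medians from duplicate plates. Each reflects relative viability, defined as the nuclei count of treated wells over that of vehicle wells. Lung cancer cell lines in 1536-well plates were pin-tool dosed one day after seeding with one drug alone or with a fixed anchor-drug dose plus five library-drug doses (not always all listed) in √10 steps, then fixed, stained and imaged at 4× after 5 days.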

Idelalisib + Tozasertib = compound: CC[C@H](Nc1ncnc2[nH]cnc12)c1nc2cccc(F)c2c(=O)n1-c1ccccc1 [Idelalisib] + Cc1cc(Nc2cc(N3CCN(C)CC3)nc(Sc3ccc(NC(=O)C4CC4)cc3)n2)n[nH]1 [Tozasertib] (partner 0.1 µM)
Method in brief: as §1

Pemetrexed + Vorinostat = compound: Nc1nc2[nH]cc(CCc3ccc(C(=O)N[C@@H](CCC(=O)O)C(=O)O)cc3)c2c(=O)[nH]1 [Pemetrexed] + O=C(CCCCCCC(=O)Nc1ccccc1)NO [Vorinostat] (partner 1 µM)
Method in brief: as §1

Pemetrexed + AZD7762 = compound: Nc1nc2[nH]cc(CCc3ccc(C(=O)N[C@@H](CCC(=O)O)C(=O)O)cc3)c2c(=O)[nH]1 [Pemetrexed] + NC(=O)Nc1cc(-c2cccc(F)c2)sc1C(=O)N[C@H]1CCCNC1 [AZD7762] (partner 0.2 µM)
Method in brief: as §1

Cell Line	relative viability (Idelalisib + Palbociclib; first compound 0.04 µM)	relative viability (Idelalisib + Palbociclib; first compound 0.1265 µM)	relative viability (Idelalisib + Palbociclib; first compound 0.4 µM)	relative viability (Idelalisib + Palbociclib; first compound 1.265 µM)	relative viability (Idelalisib + Palbociclib; first compound 4 µM)	relative viability (Idelalisib + Tozasertib; first compound 0.04 µM)	relative viability (Idelalisib + Tozasertib; first compound 0.1265 µM)	relative viability (Idelalisib + Tozasertib; first compound 0.4 µM)	relative viability (Idelalisib + Tozasertib; first compound 1.265 µM)	relative viability (Idelalisib + Tozasertib; first compound 4 µM)	relative viability (Pemetrexed + Vorinostat; first compound 0.002 µM)	relative viability (Pemetrexed + Vorinostat; first compound 0.006325 µM)	relative viability (Pemetrexed + Vorinostat; first compound 0.02 µM)	relative viability (Pemetrexed + Vorinostat; first compound 0.06325 µM)	relative viability (Pemetrexed + Vorinostat; first compound 0.2 µM)	relative viability (Pemetrexed + AZD7762; first compound 0.002 µM)	relative viability (Pemetrexed + AZD7762; first compound 0.006325 µM)	relative viability (Pemetrexed + AZD7762; first compound 0.02 µM)	relative viability (Pemetrexed + AZD7762; first compound 0.06325 µM)	relative viability (Pemetrexed + AZD7762; first compound 0.2 µM)
NCI-H2023	0.368	0.492	0.295	0.295	0.295	0.355	0.284	0.363	0.321	0.253	0.306	0.595	0.676	0.372	0.15					
SW 900	0.493	0.543	0.397	0.531	0.407	0.69	0.539	0.542	0.605	0.594	0.499	0.523	0.682	0.576	0.406	0.692	0.599	0.609	0.497	0.376
HOP-62	0.441	0.468	0.411	0.468	0.328	0.415	0.408	0.392	0.436	0.326	0.387	0.581	0.721	0.626	0.547	0.485	0.534	0.45	0.762	0.483
H3255	0.33	0.297	0.287	0.35	0.338	0.646	0.852	0.583	0.568	0.544	0.66	0.767	0.753	0.817	0.596	0.798	0.916	0.928	0.79	0.571
NCI-H1734	0.38	0.397	0.301	0.303	0.31	0.264	0.246	0.253	0.254	0.246	0.794	0.725	0.931	0.778	0.708	0.415	0.584	0.649	0.508	0.332
SK-MES-1	0.296	0.311	0.299	0.315	0.288	0.972	1.05	0.955	0.964	0.931	1.07	0.994	1.18	1.11	0.993					
NCI-H1792	0.632	0.668	0.557	0.668	0.55											0.608	0.633	0.697	0.676	0.633
EKVX	0.362	0.373	0.358	0.325	0.298	0.411	0.419	0.336	0.342	0.317	0.683	0.654	0.724	0.793	0.557	0.589	0.645	0.636	0.549	0.654
EPLC-272H	0.724	0.346	0.29	0.307	0.322	0.212	0.227	0.242	0.212	0.222	0.519	0.398	0.544	0.308	0.288	0.117	0.206	0.259	0.176	0.169
LK-2	0.603	0.832		0.609	0.659	0.178	0.165		0.18	0.164	0.312	0.313	0.254	0.297	0.338	0.504	0.426	0.494	0.245	0.164
CAL-12T	0.836	0.525	0.448	0.615	0.414	0.323	0.254	0.295	0.325	0.265	0.634	0.683	0.852	0.704	0.821	0.562	0.685	0.782	0.579	0.543
NCI-H322M	0.495	0.488	0.424	0.435	0.508	0.516	0.532	0.466	0.44	0.453	0.84	0.957	0.888	0.893	0.58	0.709	0.634	0.565	0.637	0.557
NCI-H1650	0.361	0.338	0.297	0.324	0.291	0.312	0.405	0.36	0.33	0.304	0.521	0.671	0.634	0.443	0.234					
NCI-H2342	0.485	0.495	0.484	0.519	0.473	0.44	0.556	0.44	0.455	0.397	0.824	0.831	0.749	0.773	0.843	0.354	0.492	0.392	0.524	0.443
SW 1573	0.436	0.376	0.346	0.372	0.255	0.168	0.181	0.163	0.201	0.142	0.697	0.541	1.04	0.747	0.653					
NCI-H2405	0.539	0.484	0.494	0.512	0.486	0.841	0.864	0.671	0.762	0.672	0.929	1.2	1.07	1.02	0.96	0.781	0.833	0.843	0.689	0.629
LCLC-103H	0.515	0.421	0.472	0.472	0.451	0.505	0.48	0.425	0.472	0.308	0.663	0.753	0.857	0.881	0.763	0.642	0.774	0.792	0.775	0.695
HCC-44	1.02	0.887	0.984	1.04	0.96	0.879	1.02	0.762	0.866	0.756	0.972	1.11	1.14	1.11	1.13	0.928	1.01	0.991	1.03	0.944
RERF-LC-KJ	1.12	1.06	1.02	0.965	0.759	0.539	0.502	0.47	0.474	0.449	0.621	0.581	0.762	0.597	0.5	0.837	1.49	0.919	1.04	0.618

Cell Line	relative viability (Idelalisib + Palbociclib; first compound 0.04 µM)	relative viability (Idelalisib + Palbociclib; first compound 0.1265 µM)	relative viability (Idelalisib + Palbociclib; first compound 0.4 µM)	relative viability (Idelalisib + Palbociclib; first compound 1.265 µM)	relative viability (Idelalisib + Palbociclib; first compound 4 µM)	relative viability (Idelalisib + Tozasertib; first compound 0.04 µM)	relative viability (Idelalisib + Tozasertib; first compound 0.1265 µM)	relative viability (Idelalisib + Tozasertib; first compound 0.4 µM)	relative viability (Idelalisib + Tozasertib; first compound 1.265 µM)	relative viability (Idelalisib + Tozasertib; first compound 4 µM)	relative viability (Pemetrexed + Vorinostat; first compound 0.002 µM)	relative viability (Pemetrexed + Vorinostat; first compound 0.006325 µM)	relative viability (Pemetrexed + Vorinostat; first compound 0.02 µM)	relative viability (Pemetrexed + Vorinostat; first compound 0.06325 µM)	relative viability (Pemetrexed + Vorinostat; first compound 0.2 µM)	relative viability (Pemetrexed + AZD7762; first compound 0.002 µM)	relative viability (Pemetrexed + AZD7762; first compound 0.006325 µM)	relative viability (Pemetrexed + AZD7762; first compound 0.02 µM)	relative viability (Pemetrexed + AZD7762; first compound 0.06325 µM)	relative viability (Pemetrexed + AZD7762; first compound 0.2 µM)
NCI-H1975	0.586	0.653	0.429	0.583	0.406	0.7	0.794	0.671	0.718	0.565	0.666	0.721	0.699	0.588	0.308		0.819	0.818	0.583	0.35
IA-LM											0.95	0.988	1.1	0.808	0.982					
LCLC-97TM1	0.247	0.248	0.179	0.239	0.158	0.299	0.172	0.201	0.207	0.207	0.711	0.559	0.765	0.803	0.163	0.338	0.164	0.273	0.243	0.127
NCI-H520	0.24	0.184	0.193	0.185	0.156	0.468	0.4	0.406	0.405	0.405	0.671	0.7	0.718	0.681	0.709					
A-427	0.558	0.542	0.491	0.559	0.505	0.222	0.222	0.219	0.196	0.181	0.855	0.865	0.867	0.876	0.708	0.798	0.708	0.818	0.755	0.733
ABC-1	0.546	0.6	0.664	0.686	0.709	0.146	0.154	0.186	0.219	0.196	1.07	1.68	1.18	1.33	1.1	0.907	0.847	0.856	0.732	0.726
NCI-H460	0.145	0.286	0.175	0.121	0.103	0.626	0.397	0.436	0.447	0.255		0.683	0.784	0.57	0.0651	0.589	0.707	0.657	0.194	0.0726
NCI-H1395	0.636	0.615	0.595	0.564	0.453	0.817	0.77	0.771	0.767	0.62	0.513	0.871	0.959	0.7	0.738	0.387	0.373	0.421	0.415	0.38
NCI-H23	0.51	0.467	0.441	0.501	0.521	0.39	0.528	0.363		0.334	0.464	0.592	0.77	0.713	0.62	0.253	0.231	0.232	0.235	0.245
LOU-NH91	0.548	0.545	0.629	0.544	0.547	0.749	0.641	0.651	0.557	0.708	0.878	0.906	1.02	0.591	0.395	0.678	0.738	0.715	0.44	0.394
NCI-H2009	0.259	0.224	0.176	0.202	0.13	0.736	0.852	0.667	0.756	0.567	0.631	0.7	0.776	0.681	0.654					
SK-LU-1	0.424	0.408	0.504	0.375	0.348	0.294	0.313	0.337	0.32	0.327	0.684	0.782	0.887	0.763	0.795					
NCI-H2228	0.633	0.846	0.737	0.958	0.743	0.292	0.216	0.223	0.271	0.239	0.807	0.493	0.749	0.413	0.296					
NCI-H1703																0.127	0.133	0.127	0.12	0.146
NCI-H661	0.417	0.425	0.398	0.459	0.421	0.414	0.358	0.391	0.358	0.408	0.761	0.72	0.821	0.8	0.745					
COR-L23	0.314	0.299	0.239	0.315	0.281	0.196	0.195	0.207	0.225	0.162	0.474	0.398	0.424	0.186	0.136					
NCI-H1623						0.393	0.429	0.443	0.431	0.388										
COR-L 105	0.431	0.42	0.353	0.424	0.433	0.354	0.321	0.312	0.334	0.357	0.954	0.784	0.849	0.857	0.688					
NCI-H596						0.818	1.01	0.73	0.855	0.815	0.707	0.577	0.576	0.468	0.385	1.17	1.1	1.07	0.472	0.362
